Source: PubChem BioAssay AID214 (DTP/NCI, 2004)
Where “and” joins values, the source holds several entries; their conditions need not be identical. Equal entries are not always repeated. Results filed as inconclusive are left out.

System: B6C3F1 mice, colon carcinoma 38 s.c., T/C
Assay: NCI In Vivo Anticancer Drug Screen. Data for tumor model Colon Carcinoma 38 (subcutaneous) in B6C3F1 mice
Conditions: higher = larger tumour
Experimental: The antitumor activity of compounds was measured in mice bearing transplantable tumors. Survival or tumor size were measured and the results are expressed as the measurement made in the treated group (T) divided by the measurement made in the vehicle treated control group (C). The tumor model used in this assay is Colon Carcinoma 38 (subcutaneous) in B6C3F1 mice

[1] = endpoint: median tumor weight (est.), dose: 200.0 mg/kg/injection, schedule: Q07DX002 (ip), vehicle: water
[2] = endpoint: median tumor weight (est.), dose: 50.0 mg/kg/injection, schedule: Q07DX002 (ip), vehicle: saline
[3] = endpoint: median tumor weight (est.), dose: 100.0 mg/kg/injection, schedule: Q07DX002 (ip), vehicle: saline
[4] = endpoint: median tumor weight (est.), dose: 200.0 mg/kg/injection, schedule: Q07DX002 (ip), vehicle: saline
[5] = endpoint: median tumor weight (est.), dose: 400.0 mg/kg/injection, schedule: Q07DX002 (ip), vehicle: saline
[6] = endpoint: median tumor weight (est.), dose: 100.0 mg/kg/injection, schedule: Q07DX002 (ip), vehicle: Klucel (hydroxypropylcellulose) (HPC)
[7] = endpoint: median tumor weight (est.), dose: 200.0 mg/kg/injection, schedule: Q07DX002 (ip), vehicle: saline with Tween-80

Compound: CCCNC1=C(C)C(=O)C2=C(C1=O)[C@H](COC(N)=O)[C@]1(OC)[C@@H]3N[C@@H]3CN21
- T/C (endpoint: median tumor weight (est.), dose: 1.5 mg/kg/injection, schedule: Q07DX002 (ip), vehicle: suspension in saline): 73 % of control
- T/C (endpoint: median tumor weight (est.), dose: 3.0 mg/kg/injection, schedule: Q07DX002 (ip), vehicle: suspension in saline): 114 % of control
- T/C (endpoint: median tumor weight (est.), dose: 6.0 mg/kg/injection, schedule: Q07DX002 (ip), vehicle: suspension in saline): 112 % of control
- T/C (endpoint: median tumor weight (est.), dose: 12.0 mg/kg/injection, schedule: Q07DX002 (ip), vehicle: suspension in saline): 33 % of control
- T/C (endpoint: median tumor weight (est.), dose: 24.0 mg/kg/injection, schedule: Q07DX002 (ip), vehicle: suspension in saline): 36 % of control

Compound: O=C(O)Cc1cccc2c(=O)cc(-c3ccccc3)oc12
- T/C (endpoint: median tumor weight (est.), dose: 33.0 mg/kg/injection, schedule: Q07DX002 (ip), vehicle: suspension in saline): 67 % of control
- T/C (endpoint: median tumor weight (est.), dose: 63.0 mg/kg/injection, schedule: Q07DX002 (ip), vehicle: clinical formulation): 109 % of control
- T/C (endpoint: median tumor weight (est.), dose: 63.0 mg/kg/injection, schedule: Q07DX002 (ip), vehicle: sodium bicarbonate): 100 % of control
- T/C (endpoint: median tumor weight (est.), dose: 63.0 mg/kg/injection, schedule: Q07DX002 (iv), vehicle: clinical formulation): 114 % of control
- T/C (endpoint: median tumor weight (est.), dose: 63.0 mg/kg/injection, schedule: Q07DX002 (iv), vehicle: sodium bicarbonate): 90 % of control
- T/C (endpoint: median tumor weight (est.), dose: 66.0 mg/kg/injection, schedule: Q07DX002 (ip), vehicle: suspension in saline): 89 % of control
- T/C (endpoint: median tumor weight (est.), dose: 84.0 mg/kg/injection, schedule: Q07DX002 (ip), vehicle: clinical formulation): 91 % of control
- T/C (endpoint: median tumor weight (est.), dose: 84.0 mg/kg/injection, schedule: Q07DX002 (ip), vehicle: sodium bicarbonate): 155 % of control
- T/C (endpoint: median tumor weight (est.), dose: 84.0 mg/kg/injection, schedule: Q07DX002 (iv), vehicle: clinical formulation): 67 % of control
- T/C (endpoint: median tumor weight (est.), dose: 84.0 mg/kg/injection, schedule: Q07DX002 (iv), vehicle: sodium bicarbonate): 82 % of control
- T/C (endpoint: median tumor weight (est.), dose: 100.0 mg/kg/injection, schedule: Q07DX002 (ip), vehicle: suspension in saline): 90 % of control
- T/C (endpoint: median tumor weight (est.), dose: 112.0 mg/kg/injection, schedule: Q07DX002 (ip), vehicle: clinical formulation): 95 % of control
- T/C (endpoint: median tumor weight (est.), dose: 112.0 mg/kg/injection, schedule: Q07DX002 (iv), vehicle: clinical formulation): 74 % of control
- T/C (endpoint: median tumor weight (est.), dose: 112.0 mg/kg/injection, schedule: Q07DX002 (iv), vehicle: sodium bicarbonate): 84 % of control and 102 % of control
- T/C (endpoint: median tumor weight (est.), dose: 128.0 mg/kg/injection, schedule: Q07DX002 (ip), vehicle: water): 79 % of control
- T/C (endpoint: median tumor weight (est.), dose: 150.0 mg/kg/injection, schedule: Q07DX002 (ip), vehicle: clinical formulation): 14 % of control
- T/C (endpoint: median tumor weight (est.), dose: 150.0 mg/kg/injection, schedule: Q07DX002 (ip), vehicle: sodium bicarbonate): 101 % of control
- T/C (endpoint: median tumor weight (est.), dose: 150.0 mg/kg/injection, schedule: Q07DX002 (ip), vehicle: suspension in saline): 10 % of control
- T/C (endpoint: median tumor weight (est.), dose: 150.0 mg/kg/injection, schedule: Q07DX002 (iv), vehicle: clinical formulation): 47 % of control
- T/C (endpoint: median tumor weight (est.), dose: 150.0 mg/kg/injection, schedule: Q07DX002 (iv), vehicle: sodium bicarbonate): 57 % of control
- T/C (endpoint: median tumor weight (est.), dose: 160.0 mg/kg/injection, schedule: Q07DX002 (ip), vehicle: water): 81 % of control
- T/C (endpoint: median tumor weight (est.), dose: 200.0 mg/kg/injection, schedule: Q07DX002 (ip), vehicle: sodium bicarbonate): 79 % of control and 87 % of control
- T/C [1]: 25 % of control
- T/C (endpoint: median tumor weight (est.), dose: 250.0 mg/kg/injection, schedule: Q07DX002 (ip), vehicle: water): 13 % of control
- T/C (endpoint: median tumor weight (est.), dose: 267.0 mg/kg/injection, schedule: Q07DX002 (iv), vehicle: sodium bicarbonate): 77 % of control
- T/C (endpoint: median tumor weight (est.), dose: 356.0 mg/kg/injection, schedule: Q07DX002 (iv), vehicle: sodium bicarbonate): 77 % of control
- T/C (endpoint: optimum tumor weight change, dose: 128.0 mg/kg/injection, schedule: Q07DX002 (ip), vehicle: water): 78 % of control
- T/C (endpoint: optimum tumor weight change, dose: 160.0 mg/kg/injection, schedule: Q07DX002 (ip), vehicle: water): 50 % of control
- T/C (endpoint: optimum tumor weight change, dose: 200.0 mg/kg/injection, schedule: Q07DX002 (ip), vehicle: water): 72 % of control
- T/C (endpoint: optimum tumor weight change, dose: 250.0 mg/kg/injection, schedule: Q07DX002 (ip), vehicle: water): 20 % of control

Compound: Cc1ccc2nc(-c3ccc4nc(-c5ccc(N=Nc6ccc(-c7nc8ccc(-c9nc%10ccc(C)c(S(=O)(=O)O)c%10s9)cc8s7)cc6)cc5)sc4c3)sc2c1S(=O)(=O)O
- T/C [2]: 72 % of control
- T/C [3]: 101 % of control
- T/C [4]: 84 % of control
- T/C [5]: 82 % of control

Compound: C=C(Cl)C(=NC(C)(C)C)Nc1ccccc1C
- T/C [6]: 88 % of control

Compound: O=C(CCCCCCC(=O)ON1C(=O)CCC1=O)ON1C(=O)CCC1=O
- T/C (endpoint: median tumor weight (est.), dose: 12.5 mg/kg/injection, schedule: Q07DX002 (ip), vehicle: saline with Tween-80): 74 % of control
- T/C (endpoint: median tumor weight (est.), dose: 25.0 mg/kg/injection, schedule: Q07DX002 (ip), vehicle: saline with Tween-80): 69 % of control
- T/C [7]: 108 % of control

Compound: CC(C)NCC(O)COc1ccc(O)c(O)c1 (stereo not drawn)
- T/C [2]: 97 % of control
- T/C [3]: 94 % of control

Compound: COC1C(CO)OC(n2cnc3c(=S)nc(N)[nH]c32)C1O (stereo not drawn)
- T/C [6]: 110 % of control
- T/C (endpoint: median tumor weight (est.), dose: 200.0 mg/kg/injection, schedule: Q07DX002 (ip), vehicle: Klucel (hydroxypropylcellulose) (HPC)): 46 % of control
- T/C (endpoint: median tumor weight (est.), dose: 400.0 mg/kg/injection, schedule: Q07DX002 (ip), vehicle: Klucel (hydroxypropylcellulose) (HPC)): 51 % of control
- T/C (endpoint: median tumor weight (est.), dose: 800.0 mg/kg/injection, schedule: Q07DX002 (ip), vehicle: Klucel (hydroxypropylcellulose) (HPC)): 13 % of control

Compound: O=C(O)Cc1cccc2c(=O)c(-c3ccccc3)coc12
- T/C [3]: 177 % of control
- T/C [4]: 76 % of control
- T/C [5]: 121 % of control

Compound: O=c1c(O)c(-c2cc(O)c(O)c(O)c2)oc2cc(O)cc(O)c12
- T/C (endpoint: median tumor weight (est.), dose: 600.0 mg/kg/injection, schedule: Q07DX002 (ip), vehicle: saline with Tween-80): 95 % of control

Compound: O=P(O)(NCCCl)NCCCl
- T/C (endpoint: median tumor weight (est.), dose: 12.5 mg/kg/injection, schedule: Q07DX002 (ip), vehicle: saline): 52 % of control
- T/C (endpoint: median tumor weight (est.), dose: 25.0 mg/kg/injection, schedule: Q07DX002 (ip), vehicle: saline): 100 % of control
- T/C [2]: 60 % of control

Compound: COc1cccc(-c2cc(=O)c3cccc(CC(=O)O)c3o2)c1
- T/C [3]: 3 % of control

Compound: O=C1C2CC(Cl)C(SSC3CC4C(=O)N(SC(Cl)(Cl)C(Cl)Cl)C(=O)C4CC3Cl)CC2C(=O)N1SC(Cl)(Cl)C(Cl)Cl (stereo not drawn)
- T/C (endpoint: median tumor weight (est.), dose: 25.0 mg/kg/injection, schedule: Q07DX002 (ip), vehicle: Klucel (hydroxypropylcellulose) (HPC)): 91 % of control
- T/C (endpoint: median tumor weight (est.), dose: 50.0 mg/kg/injection, schedule: Q07DX002 (ip), vehicle: Klucel (hydroxypropylcellulose) (HPC)): 66 % of control
- T/C [6]: 74 % of control

Compound: BrCCC1(CCBr)CCCCC1
- T/C (endpoint: median tumor weight (est.), dose: 100.0 mg/kg/injection, schedule: Q07DX002 (ip), vehicle: water): 112 % of control
- T/C [1]: 177 % of control
- T/C (endpoint: median tumor weight (est.), dose: 400.0 mg/kg/injection, schedule: Q07DX002 (ip), vehicle: water): 95 % of control
- T/C (endpoint: median tumor weight (est.), dose: 800.0 mg/kg/injection, schedule: Q07DX002 (ip), vehicle: water): 117 % of control
- T/C (endpoint: median tumor weight (est.), dose: 1600.0 mg/kg/injection, schedule: Q07DX002 (ip), vehicle: water): 90 % of control

Compound: O=[N+]([O-])c1ccc(N2CCOCC2)c2c1no[n+]2[O-]
- T/C (endpoint: median tumor weight (est.), dose: 50.0 mg/kg/injection, schedule: Q07DX002 (ip), vehicle: saline with Tween-80): 165 % of control
- T/C (endpoint: median tumor weight (est.), dose: 100.0 mg/kg/injection, schedule: Q07DX002 (ip), vehicle: saline with Tween-80): 98 % of control
- T/C [7]: 103 % of control

Compound: COc1ccc(OC)c(Cc2cnc3nc(N)nc(N)c3c2C)c1
- T/C (endpoint: median tumor weight (est.), dose: 25.0 mg/kg/injection, schedule: Q07DX002 (ip), vehicle: water): 72 % of control
- T/C (endpoint: median tumor weight (est.), dose: 50.0 mg/kg/injection, schedule: Q07DX002 (ip), vehicle: water): 104 % of control

Compound: Cc1c(-c2ccc(-c3ccccc3F)cc2)nc2ccc(F)cc2c1C(=O)O
- T/C (endpoint: median tumor weight (est.), dose: 3.6 mg/kg/injection, schedule: Q01DX008 (ip), vehicle: water): 45 % of control
- T/C (endpoint: median tumor weight (est.), dose: 6.0 mg/kg/injection, schedule: Q01DX008 (ip), vehicle: water): 53 % of control
- T/C (endpoint: median tumor weight (est.), dose: 10.0 mg/kg/injection, schedule: Q01DX008 (ip), vehicle: water): 43 % of control
- T/C (endpoint: median tumor weight (est.), dose: 16.6 mg/kg/injection, schedule: Q01DX008 (ip), vehicle: water): 26 % of control
- T/C (endpoint: median tumor weight (est.), dose: 27.7 mg/kg/injection, schedule: Q01DX008 (ip), vehicle: water): 23 % of control

Compound: O=C(O)Cc1cccc2c(=O)cc(Cc3ccccc3)oc12
- T/C [3]: 60 % of control
- T/C [4]: 111 % of control
- T/C [5]: 122 % of control
